Laboratory results as given in US20050170028A1, “Polysaccharide extract from Lycium barbarum as neuroprotective agent against beta-amyloid peptide neurotoxicity” (priority 2004, published 2005).

Legend:
Format in all cases: cell-based
[1] = test system: caspase-3; assay: colorimetric caspase-3 activity assay in neurons exposed to Aβ-peptide
Procedure: Caspase-3 has long been regarded as an index for neuronal apoptosis. Therefore, the colorimetric caspase-3 activity assay was performed at the concentrations stated in FIG. 5, and neuronal apoptosis was determined by the colorimetric caspase-3 activity assay by measuring the absorbance (at 405 nm) of the yellow product (pNA) cleaved from the substrate. Results (***p<0.001 vs. the group treated with Aβ-peptide alone, by one-way ANOVA, Tukey test) are expressed as mean±SE from at least three independent experiments.
Caspase-3 is a general apoptosis marker. For apoptosis analysis, the colorimetric caspase-3 activity assay (at 405 nm) was performed.
It is also a well-known Western medicine for the treatment of manic-depressive bi-polar disorder. […] Neurons were pretreated with either LiCl (2 mM to 20 mM) or LBA (0.1 μg/ml to 500μ/ml) for 1 hour, and then exposed to Aβ25-35 peptide (25 μM) for 24 hours. Caspase-3 activity assay was used to determine the protective effects against Aβ-peptide toxicity. […] The unit of concentration of LiCl was converted from mM to μ/ml for the purpose of comparison with LBA. […] The toxicity decreased when the concentration of LiCi increased and it reached the lowest value (8.5%) when LiCi was used at 850 μ/ml (20 mM). Accordingly, LiCl could effectively reduce Aβ-peptide-stimulated caspase-3 activity in the range of 340 μg/ml to 850 μg/ml (i.e. 8 mM to 20 mM). LBA exerted protective effects for neurons against Aβ-peptide toxicity from very low concentration to high concentration (0.1 μg/ml to 500 μg/ml).
It has been reported that specific inhibitor of JNK, SP600125, also exerts protection for neurons against Aβ-peptide toxicity. We therefore compared the therapeutic window of SP600125 with LBA to elucidate their effectiveness in neuroprotection. Neurons were pretreated with either SP600125 (5 μM to 20 μM) or LBA (0.1 μg/ml to 500 μg/ml) for 1 hour, and then exposed to Aβ-peptide (25 μM) for 16 hours. Caspase-3 activity assay was done to investigate their protective effects against Aβ-peptide toxicity. Thus, after treatment, colorimetric caspase-3 activity assay was done to examine the level of apoptosis. Caspase-3 activity was expressed as % toxicity. Results are expressed as mean±SE from at least three independent experiments. % toxicity is calculated as: (s.a.of Aβ-/LBA-/SP-treated−s.a.control)÷(s.a.Aβ-treated−s.a.control). […] The unit of concentration of SP600125 was converted from […] to μg/ml for the purpose of comparison with LBA. […] The toxicity was 100% when using SP600125 at more than 20 μM (data not shown). SP600125 was effective from 1.1 μg/ml to 4.4 μ/ml; the range is very narrow when compared with that of LBA.
(§1) We separated different fractions by ion-exchange chromatography. Activity of caspase-3 served as an index for neuronal apoptosis. […] The biochemical analysis of caspase-3 activity was confirmed by morphological examination (FIG. 17). Upon exposure to Aβ peptide, neurites were broken and neurons were undergoing apoptosis.
For apoptosis analysis, the activity of caspase-3 serves as an index for neuronal apoptosis. […] A hundred microgram per […] exerted a nearly 100% neuroprotective effects (FIG. 20).

[2] = test system: neurons exposed to Aβ peptide; assay: morphological changes of neurons exposed to Aβ-peptide; conditions: LBA 100 μg/ml, LBB 500 μg/ml, heparin 1 μM; 1 h, then Aβ peptide 25 μM 24 h
Procedure: Since LBA and LBB contain both carbohydrate and amino acid, we use heparin to make a comparison of their protective effects. Neurons were pre-incubated with either heparin (1 μM), LBA (100 μg/ml) or LBB (500 μg/ml) for 1 hour, followed by a 24-hour exposure to Aβ peptide (25 μM). The morphology of neurons after different treatments is shown in FIG. 12, in which (A) Control, (B) Aβ-peptide alone, (C) LBA (100 μg/ml), (D) LBA (100 μg/ml)+Aβ, (E) LBB (500 μg/ml), (F) LBB (500 μg/ml)+Aβ, (G) Heparin (1 μM) and (H) Heparin (1 μM)+Aβ. […] In B, neurons treated with Aβ-peptide for 24 hours undergo apoptosis, as shown by the destruction of the fine neurite network. […] G and H were neurons pre-incubated with heparin, and then without and with Aβ-peptide exposure. […] Based on the morphology of neurons, the mode of neuroprotection of LBA and LBB is somewhat different to that of heparin.
as §1

[3] = test system: caspase-2; assay: colorimetric caspase-2 activity assay in neurons exposed to Aβ-peptide; conditions: Aβ-peptide alone
Description: Caspase-2 is an important index for neuronal apoptosis for β-amyloid peptide neurotoxicity. It has been reported that Aβ-peptide triggered activation of caspase-2. […] Therefore, we used the colorimetric method to determine caspase-2 activity. For caspase-2 activity, the trend was similar to that of caspase-3. Neurons exposed to Aβ-peptide triggered a 1.6-fold increase in caspase-2 activity.
Caspase-2 is an important index for neuronal apoptosis for β-amyloid peptide neurotoxicity. For caspase-2 activity, the trend was similar to that of caspase-3. We also used colorimetric method to determine caspase-2 activity.

[4] = test system: neurons exposed to Aβ25-35 peptide; assay: LDH release cytotoxicity assay in neurons exposed to Aβ-peptide; conditions: Aβ25-35 peptide 25 μM alone, 24 h; control 24.7±0.45%; mean±SE
Procedure: To examine the effects of the aqueous extract LBA from Lycium barbarum on Aβ-peptide-induced neurotoxicity, neurons were pretreated with LBA (ranging from 0.1 μg/ml to 500 μg/ml) for 1 hour, followed by a 24-hour exposure to Aβ25-35 peptide (25 μM). For cytotoxicity analysis, the extracellular concentration of LDH was measured. […] For the control group, the release of LDH representing natural neuronal death was 24.7±0.45% of the total LDH release. Neurons exposed to Aβ-peptide increased the release of LDH to 38.0±0.92%.
The effects of the basic extract LBB from Lycium barbarum on Aβ-peptide-induced neurotoxicity were also investigated using the same approaches as for LBA. For cytotoxicity analysis, the extracellular concentration of LDH was measured.

## Oc1c2ccccc2c2c3c(cccc13)N=N2 [SP600125]
[1]; 1.1 μg/ml (5 μM), 1 h pretreatment, Aβ-peptide 25 μM 16 h
  caspase-3 activity as % toxicity: 23.8%
[1]; 4.4 μg/ml (20 μM), 1 h pretreatment, Aβ-peptide 25 μM 16 h
  caspase-3 activity as % toxicity: 69.3%
[1]; more than 20 μM, data not shown
  caspase-3 activity as % toxicity: 100%

## heparin
[2]
  morphology of neurons after pre-incubation and Aβ peptide: elongated neurons

## Aβ-peptide: β-amyloid peptide fragment 25-35 used at 25 μM as the neurotoxic challenge (GSNKGAIIGLM; Amyloid-beta protein 42; UniProt P05067 696-706, looked up, fragment)
[3]
  caspase-2 activity: 1.6 fold
[4]
  release of LDH, percentage of total LDH release: 38.0±0.92%
[1]; Aβ-peptide treated group, no extract
  caspase-3 activity: 2.13 fold

## [Cl-].[Li+] [LiCl, Lithium Chloride]
[1]; 850 μ/ml (20 mM), 1 h pretreatment, Aβ25-35 25 μM 24 h, lowest value
  caspase-3 activity as percent toxicity: 8.5%
[1]; about 85 μg/ml (2 mM), Aβ25-35 25 μM 24 h
  toxicity to neurons (caspase-3 percent toxicity): toxic to neurons
